This is an account of results in patent EP0117060A2, “Methods of screening and amplification in eukaryotic host cells, and nucleotide sequences and expression vectors for use therein” (GENENTECH, INC., priority 1983, dated 1984).

Holding throughout (type): cell-based, Chinese hamster
Assay [1] deals with CHO-DUX-B11 (dhfr-) cells transfected with pFD11 (pFD11.1). The assay is described as follows: Growth inhibition by MTX, 3 day cell count assay, pFD11 transfected clone. The following applies: Cricetulus griseus, 72 h; cells from the pFD11 transfected colony (pFD11.1), wild type DHFR plasmid; 3 days, cells counted; read-out: level of MTX which inhibits cell growth by 50 percent over the 3 day assay. The method, then: (§1) A deficiency of the wild type DHFR as a selectable marker in tissue culture systems is the relatively low degree of MTX resistance conferred upon the transfected cells by the transfected wild type enzyme expression plasmid. […] Individual colonies were isolated from pFR400 or pFDll transfected dhfr- cells and propagated in the absence of MTX. Equal amounts of cells from two clones and of CHO-Kl cells were trypsinized and split into 60 mm dishes. Various levels of MTX were added to each dish, the cells incubated for 3 days, and then counted.
(§2) The pFDll transfected cells were clearly less capable of growing in high levels of MTX than were the CHO-K1 (DHFR^+) cells grown under identical conditions. The level of MTX which inhibits cell growth by 50 percent over the 3 day assay was approximately 3 nM for cells derived from the pFDll transfected colony (pFD11.1) and was 20nM for CHO-K1 cells. In contrast to this, the colony (pFR400.1) isolated from the cells transfected with pFR400, was able to grow in extremely high levels of MTX. The 50 percent inhibition level for FR400.1 cells is approximately 3000 nM.

Another assay concerns CHO-K1 cells. The assay is described as follows: Growth inhibition by MTX, 3 day cell count assay, untransformed wild type cells. To be noted: Cricetulus griseus, 72 h, CHO-K1 (DHFR+) cells, 3 days, cells counted, read-out: level of MTX which inhibits cell growth by 50 percent over the 3 day assay. The method, then:
as §1, §2

Assay [2] deals with CHO-DUX-B11 (dhfr-) cells transfected with pFR400 (pFR400.1). The assay is described as follows: Growth inhibition by MTX, 3 day cell count assay, pFR400 transfected clone. To be noted: Cricetulus griseus, 72 h; FR400.1 cells (colony from pFR400 transfected dhfr- cells, mutant DHFR 3T6 R400); 3 days, cells counted; read-out: 50 percent inhibition level. The method, then: as §1, §2

Each structure is given as a SMILES string.

Regarding `CN(Cc1cnc2nc(N)nc(N)c2n1)c1ccc(C(=O)N[C@@H](CCC(=O)O)C(=O)O)cc1` [MTX, methotrexate], the IC50 was about 3 nM in assay [1], 20 nM in the assay on CHO-K1 cells and about 3000 nM in assay [2].
